Assay results: ChEMBL document CHEMBL3352542, “Synthesis, biological evaluation and molecular modeling study of 2-(1,3,4-thiadiazolyl-thio and 4-methyl-thiazolyl-thio)-quinazolin-4-ones as a new class of DHFR inhibitors” (Bioorg Med Chem Lett, 2014)

Key:
[1] = target: T1, Dihydrofolate reductase (Bos taurus, UniProt P00376); test: Inhibition of bovine liver DHFR
T1 sequence (P00376 whole entry): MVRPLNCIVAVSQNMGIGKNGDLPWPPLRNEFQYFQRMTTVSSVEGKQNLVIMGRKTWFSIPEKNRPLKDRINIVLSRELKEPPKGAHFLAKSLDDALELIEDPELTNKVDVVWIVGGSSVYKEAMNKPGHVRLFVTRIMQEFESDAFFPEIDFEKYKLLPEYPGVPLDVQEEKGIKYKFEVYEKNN

[2] = test system: Staphylococcus aureus; test: Antimicrobial activity against Staphylococcus aureus assessed as inhibition zone at 200 ug/disk after 24 hrs by disc-diffusion method; format: functional; conditions: read-out: IZ
[3] = test system: Bacillus subtilis; test: Antimicrobial activity against Bacillus subtilis assessed as inhibition zone at 200 ug/disk after 24 hrs by disc-diffusion method; format: functional; conditions: read-out: IZ
[4] = test system: Escherichia coli; test: Antimicrobial activity against Escherichia coli assessed as inhibition zone at 200 ug/disk after 24 hrs by disc-diffusion method; format: functional; conditions: read-out: IZ
[5] = test system: Pseudomonas aeruginosa; test: Antimicrobial activity against Pseudomonas aeruginosa assessed as inhibition zone at 200 ug/disk after 24 hrs by disc-diffusion method; format: functional; conditions: read-out: IZ
[6] = test system: Candida albicans; test: Antimicrobial activity against Candida albicans assessed as inhibition zone at 200 ug/disk after 24 hrs by disc-diffusion method; format: functional; conditions: read-out: IZ
[7] = Growth inhibition of human HOP92 cells at 10 uM after 48 hrs; format: functional; conditions: HOP-92, 48 h, read-out: GI
[8] = Growth inhibition of human SF295 cells at 10 uM after 48 hrs; format: functional; conditions: SF-295, 48 h, read-out: GI
[9] = Growth inhibition of human UO31 cells at 10 uM after 48 hrs; format: functional; conditions: UO-31, 48 h, read-out: GI
[10] = Growth inhibition of human PC3 cells at 10 uM after 48 hrs; format: functional; conditions: PC-3, 48 h, read-out: GI
[11] = test system: MDA-MB-468; test: Growth inhibition of human MDA-MB-468 cells at 10 uM after 48 hrs; format: functional; conditions: MDA-MB-468, 48 h, read-out: GI
[12] = test system: HL-60(TB); test: Growth inhibition of human HL-60(TB) cells at 10 uM after 48 hrs; format: functional; conditions: HL-60, 48 h, read-out: GI

Row | Compound | IC50 [1] [µM] | zone of inhibition at 200 µg/disc [2] [mm] | zone of inhibition at 200 µg/disc [3] [mm] | zone of inhibition at 200 µg/disc [4] [mm] | zone of inhibition at 200 µg/disc [5] [mm] | zone of inhibition at 200 µg/disc [6] [mm] | inhibition of growth at 10 µM [7] [%] | inhibition of growth at 10 µM [8] [%] | inhibition of growth at 10 µM [9] [%] | inhibition of growth at 10 µM [10] [%] | inhibition of growth at 10 µM [11] [%] | inhibition of growth at 10 µM [12] [%]
1 | COc1cc2nc(Sc3nnc(N)s3)n(-c3ccccc3)c(=O)c2cc1OC | 10 | 8 | 8 | 8 | 8 | 8 | 15.4 | 10.6 | 14.2 | 10.9 | 10.4 | 
2 | Nc1nnc(Sc2nc3ccc(Cl)cc3c(=O)n2-c2ccc(Oc3ccccc3)cc2)s1 | 0.4 | 8 | 8 | 8 | 8 | 8 |  |  | 17 |  |  | 12
3 | COc1ccc(-n2c(Sc3nnc(N)s3)nc3cc(OC)c(OC)cc3c2=O)cc1 | 7 | 8 | 8 | 8 | 8 | 8 | 33.7 |  |  |  |  | 
